According to patent US20200009034A1, “TOPICAL SKIN LIGHTENING ADDITIVE AND COMPOSITION WITH AMINO ACIDS AND PPAR ACTIVATING FATTY ACIDS” (Conopco, Inc., d/b/a UNILEVER, priority 2017, published 2020):

Experiments:
[1] = tested on: Human primary melanocytes; experiment: Melanin content assay (melanin synthesis inhibition); type: cell-based; details: Melanocyte, 72 hours treatment
Protocol: Human primary melanocytes (Cascade Biologics, now ThermoFisher Scientific) were grown in melanocytes growth medium (MGM) with human melanocyte growth supplement (both media components from ThermoFisher Scientific). Melanocytes were seeded at 5×10^4 cells/well in 24 well-plates and incubated in a humidified incubator at 37° C. with 5% CO2 atmosphere. After 24 hours of incubation, cell cultures were treated with the GAP amino acids or 12- hydroxystearic acid, alone or in combination. The vehicle control consisted of cells treated with the vehicle GAP (0.002 mM NaOH), and/or additional test reagent vehicle, . After treatment, cells were again incubated for 72 hours in a humidified incubator at 37° C. with 5% CO2 atmosphere. At the end of the 72 hour incubation, the culture medium was replaced with 120 uL/well of melanin content assay reagent (10% DMSO in 1M sodium hydroxide) and incubated for 1 hour at 60° C. in a shaker incubator. The supernatant was then transferred to a 384 well plate. The absorbance was measured by spectrophotometric analysis at 405 nm with a micro plate reader (GEnios Pro, Tecan).
The spectrophotometric optical density at 405 nm for untreated cells (no active) was considered as 100% melanin content. Relative melanin content for treated samples was calculated with normalization based on the untreated (media/vehicle) control.

Human Keratinocytes [2] = experiment: Reactive Oxygen Species (ROS) assay; type: cell-based; details: 18 hours; for activity at 20 µM / activity at 40 µM / activity at 80 µM / activity at 160 µM: Homo sapiens, Keratinocyte, read-out: ROS inhibition (% of vehicle control); for activity at 20 µM / ROS % Protection (improvement vs. vehicle control + menadione): 20 uM + menadione; for activity at 40 µM: 40 uM + menadione; for activity at 80 µM: 80 uM + menadione; for activity at 160 µM: 160 uM + menadione
Protocol: Human Keratinocytes (Promocell, Heidelberg, Germany) were maintained in EpiLife® keratinocyte medium containing 60 uM calcium chloride and 1% Human Keratinocyte Growth Supplement (HKGS) in a humidified incubator with an atmosphere containing 5% CO2 at 37° C. The medium was refreshed every other day. Subsequently, cells were trypsinized at 90% confluency and seeded at a density of 1-2×10^4 per well into 96-well plates with black wall and clear bottom. On the second day after seeding, cell medium was replaced with Hank's Balanced Salt Solution (HBSS) with or without menadione (10-25 uM), GAP, GAP vehicle (0.2 mM NaOH, pH 7.5), above-described additional test reagents, or combinations of GAP with additional test reagents or L-cystine esters alone, and incubated for additional 18 hours. For ROS detection, CellROX green (Life Tech, Thermo Fisher Scientific, Rockford, USA) reagent was added into each well to a final concentration of 15-25 uM and incubated for additional 2-4 hours at 37° C. in a humidified incubator. The ROS fluorescence was detected using a Tecan microplate reader (Excitation/Emission=490/525). Relative ROS production was calculated with normalization based on the vehicle control treatment which was set to 100%. Where indicated, percent protection was calculated as a comparison to menadione alone treatment, using the measured relative fluorescent units in the following equation: […]
ROS levels were evaluated together with cell viability because it is possible to get a false negative for ROS if treatment is so toxic, that at the time of assay, cells are dead (and there are no longer any detectable ROS). Decrease in ROS levels is meaningful if cells are still viable.

Human Keratinocytes [3] = experiment: Glutathione assay (total glutathione after menadione challenge); type: cell-based
Protocol: Human Keratinocytes (Promocell, Heidelberg, Germany) were maintained in EpiLife® medium containing 60 uM calcium chloride and 1% Human Keratinocyte Growth Supplement (both media components from ThermoFisher Scientific) in a humidified incubator with an atmosphere containing 5% CO2 at 37° C. The medium was refreshed every 2-3 days. Subsequently, cells were trypsinized at 90% confluency and seeded at a density of 1×10^4 per well into 96-well plates with white wall and clear bottom. One or two days after seeding, cell medium was replaced with Hank's Balanced Salt Solution (HBSS), and keratinocytes were pre-treated with GAP (or 0.12-0.240 mM sodium hydroxide vehicle control, pH 7.5) alone or in combination with additional test reagents described above or L-cystine esters alone for 1-2 hours. The concentration of all amino acids constituting the GAP mixture used in this assay are designated in the data tables, and fully described in the abbreviations list below.
After one or two hours of pre-treatment with GAP or additional test reagents, alone or in combination, keratinocytes were then challenged with 25 uM menadione (Sigma-Aldrich), a known inducer of oxidative stress. After 18-20 hours, cells were harvested and analyzed for total glutathione levels using a commercially available kit (GSH-GSSG GLo Assay, Promega), a luminescence-based system for the detection and quantification of total glutathione in cultured cells. In summary, after cell treatment, the media was removed and replaced with a cell lysis reagent for 5 minutes at 20-25° C.; note, all remaining steps were also conducted at 20-25° C. Next, a luciferase generation reagent was added to each well and incubated for 30 minutes. Following this step, a luciferin detection reagent was added to each well and plates were incubated for 15 minutes. Finally, plates were then read for luminescence in a FlexStation 3 plate reader (Molecular Devices). Total glutathione levels were calculated after interpolation of glutathione concentrations from a standard curve. Experimental conditions were typically conducted in at least triplicate determinations. Statistical significance was calculated using 1-way ANOVA. Percent protection was calculated by using the calculated glutathione levels from each experiment in the following equation: […]

Human Keratinocytes [4] = experiment: Cell viability assay (CCK-8); type: cell-based; details: 18 hours; for viability at 20 µM / viability at 40 µM / viability at 80 µM / viability at 160 µM: Homo sapiens, Keratinocyte, read-out: Cell viability (% of vehicle control); for viability at 160 µM: 160 uM + menadione
Protocol: Human Keratinocytes (Promocell, Heidelberg, Germany) were maintained in EpiLife® keratinocyte medium containing 60 uM calcium chloride and 1% Human Keratinocyte Growth Supplement (HKGS). The medium was refreshed every other day. Subsequently, cells were trypsinized at 90% confluency and seeded at a density of 2×10^4 per well into 96-well transparent tissue culture plates. On the second day after seeding, cell medium was replaced with treatments as described above in ROS assay section. After 18 hours, […] (CCK-8) reagent (Dojindo, Kumamoto, Japan) was diluted 1:10 in HBSS and incubated with cells for 4 h at 37° C. in a humidified incubator. Optical absorption at 450 nm was measured using a Tecan Safire2 plate reader. Relative viability was calculated with normalization based on the vehicle control treatment, which was set to 100%.
Where indicated, percent protection was calculated as a comparison to menadione alone treatment, using the measured relative absorbance units in the following equation: […]

[5] = pH less than 2 or pH above 8; cited from earlier work

Question: Which inhibition at 4 µM ([1]; 12-Hydroxystearic Acid 4 uM, alone or with GAP) does the source give for `CCCCCCC(O)CCCCCCCCCCC(=O)O` (stereo not shown) [12-Hydroxystearic Acid, 12-hydroxystearic acid] here?
Answer: Its inhibition at 4 µM is 7%.

Question: And the inhibition at 8 µM ([1]; 12-Hydroxystearic Acid 8 uM, alone or with GAP)?
Answer: Its inhibition at 8 µM is 10%.

Question: Which activity at 20 µM (Human Keratinocytes [2]) does the source give for `COC(=O)[C@@H](N)CSSC[C@H](N)C(=O)OC.Cl.Cl` [CDME, L-Cystine dimethyl ester dihydrochloride] here?
Answer: Its activity at 20 µM is 108%.

Question: And the activity at 40 µM (Human Keratinocytes [2])?
Answer: The activity at 40 µM was 111%.

Question: And the activity at 80 µM (Human Keratinocytes [2])?
Answer: Its activity at 80 µM is 114%.

Question: And the activity at 160 µM (Human Keratinocytes [2])?
Answer: Its activity at 160 µM is 97.9%.

Question: And the “Glutathione Synthesis, % Protection (improvement vs. vehicle control + menadione)” value (Human Keratinocytes [3]; 80 uM + menadione)?
Answer: The value was 31^1,2%.

Question: And the viability at 20 µM (Human Keratinocytes [4]; 20 uM + menadione)?
Answer: Its viability at 20 µM is 90.9%.

Question: And the viability at 40 µM (Human Keratinocytes [4]; 40 uM + menadione)?
Answer: The viability at 40 µM was 93.1%.

Question: And the viability at 80 µM (Human Keratinocytes [4]; 80 uM + menadione)?
Answer: The viability at 80 µM was 87%.

Question: And the viability at 160 µM (Human Keratinocytes [4])?
Answer: Its viability at 160 µM is 106%.

Question: Which results are given for `CCOC(=O)[C@@H](N)CSSC[C@H](N)C(=O)OCC.Cl.Cl` [DEC, Diethyl L-cystinate dihydrochloride]?
Answer: ROS % Protection (improvement vs. vehicle control + menadione) (Human Keratinocytes [2]): 38.0^1,2%; activity at 20 µM (Human Keratinocytes [2]): 233%; activity at 40 µM (Human Keratinocytes [2]): 212%; activity at 80 µM (Human Keratinocytes [2]): 234%; activity at 160 µM (Human Keratinocytes [2]): 254%; Glutathione Synthesis, % Protection (improvement vs. vehicle control + menadione) (Human Keratinocytes [3]; 40 uM + menadione): 13^1,2%; Glutathione Synthesis, Mean (μm glutathione) (Human Keratinocytes [3]; 40 uM + menadione): 0.54^1,2 μm; viability at 20 µM (Human Keratinocytes [4]; 20 uM + menadione): 110%; viability at 40 µM (Human Keratinocytes [4]; 40 uM + menadione): 127%; viability at 80 µM (Human Keratinocytes [4]; 80 uM + menadione): 132%; viability at 160 µM (Human Keratinocytes [4]): 122%

Question: What does the source list for `CC(C)(C)OC(=O)[C@@H](N)CSSC[C@H](N)C(=O)OC(C)(C)C.Cl.Cl` [DTBC, Ditert-butyl L-cystinate dihydrochloride]?
Answer: ROS % Protection (improvement vs. vehicle control + menadione) (Human Keratinocytes [2]): 2.2%; activity at 20 µM (Human Keratinocytes [2]): 367%; activity at 40 µM (Human Keratinocytes [2]): 324%; activity at 80 µM (Human Keratinocytes [2]): 269%; activity at 160 µM (Human Keratinocytes [2]): 221%; Glutathione Synthesis, % Protection (improvement vs. vehicle control + menadione) (Human Keratinocytes [3]; 40 uM + menadione): 0^1%; Glutathione Synthesis, Mean (μm glutathione) (Human Keratinocytes [3]; 40 uM + menadione): 0.17^1 μm; Glutathione Synthesis, % Protection (improvement vs. vehicle control + menadione) (Human Keratinocytes [3]; 80 uM + menadione): 1^1%; Glutathione Synthesis, Mean (μm glutathione) (Human Keratinocytes [3]; 80 uM + menadione): 0.19^1 μm; Cell viability % protection (improvement vs. vehicle control + menadione) (Human Keratinocytes [4]; 20 uM + menadione): 6.0^1%; Cell viability % protection (improvement vs. vehicle control + menadione) (Human Keratinocytes [4]; 40 uM + menadione): 3.0^1%; Cell viability % protection (improvement vs. vehicle control + menadione) (Human Keratinocytes [4]; 80 uM + menadione): −0.1^1%; viability at 20 µM (Human Keratinocytes [4]; 20 uM + menadione): 78.1%; viability at 40 µM (Human Keratinocytes [4]; 40 uM + menadione): 75.9%; viability at 80 µM (Human Keratinocytes [4]; 80 uM + menadione): 73.6%; viability at 160 µM (Human Keratinocytes [4]): 104%

Question: Which inhibition at 10 µM ([1]; 10 uM) does the source give for `CCCCCCc1ccc(O)cc1O` [HR, 4-hexylresorcinol, reference compound] here?
Answer: The inhibition at 10 µM was 39%.

Question: For `N[C@@H](CSSC[C@H](N)C(=O)O)C(=O)O` [cystine], which “solubility in aqueous solutions” value [5] is on record?
Answer: Its value is “more soluble”.
